Measurements from patent US7771712B2, “Composition for attracting blood sucking arthropods and fruit flies” (priority 2002, dated 2010).

Tested on: female A. aegypti
Assay: Y-tube olfactometer, single compound added to index finger scent against pure finger
Format: in vivo, Aedes aegypti
Description: In this example, the effect of adding certain compounds to the scent of a finger of a human volunteer was tested, using the set-up as described for example 1. The right and left index finger of each test person were tested in direct competition with simultaneous addition of a single compound to one finger; Martina (A) is highly, Martin (B) medium, and Doris (C) low attractive. The test components were alternately added to the right or to the left finger, respectively. Bars (means of 16 trials±S.E.M.) represent the percentage of mosquitoes trapped in the respective upwind chamber. Black bars represent the pure finger, white bars the mixture of finger plus the odor stimulus indicated below the bar; stimulus labels as described in FIG. 3A; asterisks indicate a significant preference (P<0.05, t-test for paired samples).
A) is a top view of the olfactometer for testing mosquitoes' odour preference. The spatial distribution of odourants in the air are outlined according to the appearance of TiCl4 smoke, which was injected into the olfactometer instead of the odour stimulus. In the arms of the olfactometer the smoke was homogeneous distributed^20. More turbulent odour eddies and filaments emerged in the rectangular chamber, although a steep gradient between both air streams can still be observed in the joined straight tube. For each test, 20 female A. aegypti mosquitoes were used from cultures of Bayer AG in Monheim, 5-15 days old, which had no blood meal before. Details of the olfactometer and the experimental procedure are described elsewhere (Geier, M. & Boeckh, J. Entomol. exp. appl. 92, 9-19 (1999); Geier, M., Bosch, O. J. & Boeckh, J. Chem. Sens. 24, 647-653 (1999)).
At stimulus onset, 20 mosquitoes in the start chamber are set free to fly through the olfactometer. During their zig zag flight through the straight tube they encounter alternately air streams from either arm. Following the favoured air stream during upwind flight the mosquitoes enter the respective upwind chamber where they are counted 30 s after stimulus onset. […]

SMILES: N [Ammonia+100, Ammonia]
- Attractiveness of finger scent plus compound against pure finger (FIG. 4 A, highly attractive person): less attractive

SMILES: CC(=O)O [acetic acid, Acetic acid]
- Attractiveness of finger scent plus compound against pure finger (up to 50-fold higher concentration than in the standard blend, any of the persons): did not change the attractiveness

SMILES: CCCCCC(=O)O [capronic acid, Caproic acid]
- Attractiveness of finger scent plus compound against pure finger (FIG. 4 C, low attractive person, all concentrations): more attractive
